Laboratory results: patent US20190194607A1, “HIGHLY FUNCTIONAL LIVER CELLS DERIVED FROM PLURIPOTENT STEM CELLS, METHOD FOR PRODUCING SAME, AND METHOD FOR TESTING METABOLISM/TOXICITY OF DRUG” (DNAVEC CORPORATION, priority 2011, published 2019)

What was measured:
[1] = test system: SeV-iPS-derived hepatocytes; test: Drug toxicity test: deviation enzymes in culture supernatant, SeV-iPS-derived hepatocytes; format: cell-based, human; conditions: cultured in the presence of D-GalN; FIG. 15(E)
Protocol: (§1) D-Galactosamine (D-GalN), which is known to have toxicity to hepatocytes, was added to pluripotent stem cell-derived hepatocytes at a final concentration of 25 mM, followed by culture at 37° C. After 24 hours, 1.5 mL of culture supernatant was collected and was centrifuged at 15000 rpm at 4° C. to completely remove cell components. The concentrations of liver-derived deviation enzymes contained in the supernatant, i.e., glutamic oxaloacetic transaminase (GOT), glutamic pyruvic transaminase (GPT), γ-glutamyl transpeptidase (y-GTP), leucine aminopeptidase (LAP), lactate dehydrogenase (LDH), and LDH isozyme (LDH 1 to 5), were measured (performed at BML Inc., Shibuya, Tokyo, Japan).

[2] = test system: undifferentiated ES cells; test: Drug toxicity test: deviation enzymes in culture supernatant, undifferentiated cells of FIG. 15(D); format: cell-based, human; conditions: D-GalN 25 mM, 24 hours
HepaRG cells = test: Drug toxicity test: deviation enzymes in culture supernatant, HepaRG cells; format: cell-based, human; conditions: cultured in the presence of D-GalN; FIG. 15(G)
Protocol: (§2) The HepaRG cells were cultured in accordance with the protocol of BIOPREDIC international. The HepG2 cells were purchased from Health Science Research Resources Bank, and the human primary cultured adult hepatocyte cell line was purchased from DS Pharma Biomedical Co., Ltd. (Osaka, Japan). They were cultured using a CS-C medium kit of Cell Systems Corporation (Kirkland, WA, USA). In the figure, 253G1 refers to a human iPS cell line established at Kyoto University, #40 refers to a human iPS cell line established at National Center for Child Health and Development, SeV refers to an iPS cell line induced using a SeV vector, ES-K1 refers to a human ES cell line established at Kyoto University, and CTL is an abbreviation of control.
as §1

[3] = test system: undifferentiated SeV-iPS cells; test: Drug toxicity test: deviation enzymes in culture supernatant, undifferentiated SeV-iPS cells; format: cell-based, human; conditions: cultured in the presence of D-GalN; FIG. 15(F)
[4] = test system: undifferentiated ES cells; test: Drug toxicity test: deviation enzymes in culture supernatant, undifferentiated human ES cells; format: cell-based; conditions: D-GalN 25 mM, 24 hours; FIG. 15(B)
[5] = test system: hepatocytes derived human iPS cells (#40); test: Drug toxicity test: deviation enzymes in culture supernatant, human iPS cell-derived hepatocytes; format: cell-based; conditions: D-GalN 25 mM, 24 hours; FIG. 15(C)
Protocol: as §1

[6] = test system: hepatocytes derived from human ES cells (KhES-1 cell line); test: Drug toxicity test: liver deviation enzymes in culture supernatant, human ES cell-derived hepatocytes; format: cell-based; conditions: D-GalN 25 mM, 24 hours; hepatocytes 28th day from differentiation induction; FIG. 15(A)
Protocol: as §1

HepG2 cells = test: Drug toxicity test: deviation enzymes in culture supernatant, HepG2 cells; format: cell-based, human; conditions: cultured in the presence of D-GalN; FIG. 15(H)
Protocol: as §2, §1

[7] = test system: hepatocytes derived from a #40 cell line; test: PGE1 pretreatment before D-GalN administration: deviation enzymes in culture supernatant; format: cell-based, human; conditions: 4 mM PGE1 pretreatment, 37° C. for 4 hours, then D-GalN administration; FIG. 16
Protocol: as §1
That is, 4 mM PGE1 was added to hepatocytes derived from a #40 cell line in advance, and the hepatocytes were cultured at 37° C. for 4 hours and were subjected to a D-GalN administration experiment as in above. […] Similar tendencies were detected in the samples of hepatocyte differentiation induction from other human iPS cell lines and human ES cell lines.

In the case of `N[C@H]1C(O)O[C@H](CO)[C@H](O)[C@@H]1O` (stereo partly drawn) [D-GalN, D-Galactosamine], the “level of GOT in the culture supernatant” value [1] was “increased”, the “level of GOT in culture supernatant” value [2] was “did not increase” and the “level of GPT in culture supernatant” value [2] was “did not increase”. The “level of LAP in culture supernatant” value [2] was “did not increase”, the “level of LDH in culture supernatant” value [2] was “did not increase” and the “level of γ-GTP in culture supernatant” value [2] was “did not increase”. The “level of GOT in the culture supernatant” value (HepaRG cells) was “increased”, the “level of GPT in the culture supernatant” value (HepaRG cells) was “increased” and the “level of LAP in the culture supernatant” value (HepaRG cells) was “increased”. For the same compound, the “level of LDH-5 in the culture supernatant” value (HepaRG cells) was “increased”, the “level of γ-GTP in the culture supernatant” value (HepaRG cells) was “did not increase” and the “level of GOT in the culture supernatant” value [3] was “did not increase”. For the same compound, the “levels of all of the deviation enzymes in culture supernatant” value [4] was “did not increase”, the LDH isozyme pattern [5] was ““liver damage-type” pattern in which type 4 and type 5 are dominant” and the “level of GOT in culture supernatant” value [5] was “increased”. For the same compound, the “level of GPT in culture supernatant” value [5] was “increased”, the “level of LAP in culture supernatant” value [5] was “increased” and the “level of LDH in culture supernatant” value [5] was “increased”. For the same compound, the “level of γ-GTP in culture supernatant” value [5] was “increased”, the LDH isozyme pattern [6] was ““liver damage-type” pattern in which type 4 and type 5 are dominant” and the “level of GOT in culture supernatant” value [6] was “increased”. For the same compound, the “level of LAP in culture supernatant” value [6] was “increased”, the “level of LDH in culture supernatant” value [6] was “increased” and the “level of γ-GTP in culture supernatant” value [6] was “increased”. For the same compound, the “level of GOT in the culture supernatant” value (HepG2 cells) was “increased”, the “level of GPT in the culture supernatant” value (HepG2 cells) was “increased” and the “level of LAP in the culture supernatant” value (HepG2 cells) was “did not increase”. The “level of LDH-5 in the culture supernatant” value (HepG2 cells) was “increased” and the “level of γ-GTP in the culture supernatant” value (HepG2 cells) was “did not increase”.
For `CCCCC[C@H](O)/C=C/[C@H]1[C@H](O)CC(=O)[C@@H]1CCCCCCC(=O)O` [PGE1, prostaglandin E1], the “levels of all the deviation enzymes from the liver detected in the culture supernatant after D-GalN” value [7] was “significantly suppressed”.
